Measured values: ChEMBL document CHEMBL3872257, “Multitarget drug design strategy against Alzheimer's disease: Homoisoflavonoid Mannich base derivatives serve as acetylcholinesterase and monoamine oxidase B dual inhibitors with multifunctional properties” (Bioorg Med Chem, 2017)

Experiments:
Acetylcholinesterase = Acetylcholinesterase (Electrophorus electricus, UniProt O42275); assay: Inhibition of Electrophorus electricus AChE using acetylthiocholine iodide as substrate measured after 15 mins by Ellman's method
Sequence of Acetylcholinesterase (O42275 whole entry): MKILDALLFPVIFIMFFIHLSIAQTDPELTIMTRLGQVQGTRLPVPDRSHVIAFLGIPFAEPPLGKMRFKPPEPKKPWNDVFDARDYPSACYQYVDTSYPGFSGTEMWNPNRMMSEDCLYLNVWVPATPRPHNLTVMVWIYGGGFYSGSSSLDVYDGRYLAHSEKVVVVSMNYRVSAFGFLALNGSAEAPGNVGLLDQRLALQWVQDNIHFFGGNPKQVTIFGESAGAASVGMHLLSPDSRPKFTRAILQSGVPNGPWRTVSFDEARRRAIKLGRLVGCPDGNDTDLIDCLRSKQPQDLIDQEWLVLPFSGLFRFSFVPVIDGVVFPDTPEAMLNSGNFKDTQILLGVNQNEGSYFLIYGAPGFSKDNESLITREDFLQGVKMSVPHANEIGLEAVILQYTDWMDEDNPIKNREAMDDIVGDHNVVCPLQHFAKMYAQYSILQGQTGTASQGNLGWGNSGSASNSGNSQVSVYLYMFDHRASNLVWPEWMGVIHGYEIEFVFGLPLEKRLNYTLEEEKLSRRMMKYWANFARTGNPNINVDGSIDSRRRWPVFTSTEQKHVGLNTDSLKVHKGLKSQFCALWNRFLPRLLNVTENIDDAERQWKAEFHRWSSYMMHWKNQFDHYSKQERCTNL

[1] = biological target: Butyrylcholinesterase (Rattus norvegicus) (UniProt Q9JKC1); assay: Inhibition of rat serum BuChE at 50 uM measured after 15 mins by Ellman's method relative to control
Sequence of Butyrylcholinesterase (Rattus norvegicus) (Q9JKC1 as listed by the source): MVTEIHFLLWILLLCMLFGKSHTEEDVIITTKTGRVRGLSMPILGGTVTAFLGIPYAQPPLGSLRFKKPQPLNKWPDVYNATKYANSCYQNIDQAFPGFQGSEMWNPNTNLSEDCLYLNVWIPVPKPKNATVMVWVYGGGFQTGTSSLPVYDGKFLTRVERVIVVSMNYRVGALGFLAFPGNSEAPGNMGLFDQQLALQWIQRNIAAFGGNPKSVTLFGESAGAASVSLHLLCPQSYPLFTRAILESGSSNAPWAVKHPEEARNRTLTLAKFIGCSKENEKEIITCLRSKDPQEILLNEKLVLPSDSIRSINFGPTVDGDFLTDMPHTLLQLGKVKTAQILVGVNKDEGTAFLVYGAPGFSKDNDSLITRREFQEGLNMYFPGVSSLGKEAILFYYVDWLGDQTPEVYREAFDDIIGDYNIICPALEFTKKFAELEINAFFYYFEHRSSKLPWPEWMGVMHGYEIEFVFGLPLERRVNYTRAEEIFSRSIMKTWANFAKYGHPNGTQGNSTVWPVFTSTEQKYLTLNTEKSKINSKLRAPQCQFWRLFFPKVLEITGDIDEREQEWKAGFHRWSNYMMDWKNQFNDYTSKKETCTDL

[2] = Antioxidant activity assessed as trolox equivalent of […]-induced radical scavenging activity preincubated for 15 mins followed by AAPH addition measured every minute for 120 mins by ORAC fluorescein assay; type: functional
[3] = biological target: Amyloid-beta precursor protein (Homo sapiens) (UniProt P05067); assay: Inhibition of self-mediated aggregation of amyloid beta (1 to 42 residues) (unknown origin) at 25 uM incubated for 24 hrs by Thioflavin T fluorescence assay relative to control
Sequence of Amyloid-beta precursor protein (Homo sapiens) (P05067 whole entry, the tested form may be a part): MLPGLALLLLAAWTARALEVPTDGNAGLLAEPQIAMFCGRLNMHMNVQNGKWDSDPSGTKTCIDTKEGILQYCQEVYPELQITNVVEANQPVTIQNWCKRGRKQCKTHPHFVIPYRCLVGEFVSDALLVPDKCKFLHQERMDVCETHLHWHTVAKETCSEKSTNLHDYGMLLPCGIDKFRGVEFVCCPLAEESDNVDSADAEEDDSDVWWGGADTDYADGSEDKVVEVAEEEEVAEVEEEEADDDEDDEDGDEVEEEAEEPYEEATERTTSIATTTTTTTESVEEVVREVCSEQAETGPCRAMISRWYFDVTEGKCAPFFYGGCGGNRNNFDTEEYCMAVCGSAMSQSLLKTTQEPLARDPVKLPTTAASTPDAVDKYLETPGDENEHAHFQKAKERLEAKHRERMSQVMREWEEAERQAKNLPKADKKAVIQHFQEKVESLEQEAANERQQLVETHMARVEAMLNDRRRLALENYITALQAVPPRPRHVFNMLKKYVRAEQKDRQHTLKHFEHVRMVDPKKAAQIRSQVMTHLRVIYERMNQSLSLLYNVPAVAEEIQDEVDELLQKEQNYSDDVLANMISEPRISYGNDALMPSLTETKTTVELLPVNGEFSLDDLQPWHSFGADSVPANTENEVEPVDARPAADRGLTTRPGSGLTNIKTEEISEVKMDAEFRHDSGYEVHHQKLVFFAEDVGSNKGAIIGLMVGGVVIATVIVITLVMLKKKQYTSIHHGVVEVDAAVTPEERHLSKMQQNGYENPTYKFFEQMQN

[4] = Inhibition of copper-mediated aggregation of amyloid beta (1 to 42 residues) (unknown origin) at 25 uM incubated for 24 hrs by thioflavin-T fluorescence assay relative to control; type: physicochemical
[5] = biological target: T1, Amine oxidase [flavin-containing] A (Homo sapiens, UniProt P21397); assay: Inhibition of human recombinant MAO-A using kynuramine as substrate at 20 uM measured after 30 mins by fluorescence assay relative to control; conditions: 0.5 h
T1 sequence (P21397 whole entry): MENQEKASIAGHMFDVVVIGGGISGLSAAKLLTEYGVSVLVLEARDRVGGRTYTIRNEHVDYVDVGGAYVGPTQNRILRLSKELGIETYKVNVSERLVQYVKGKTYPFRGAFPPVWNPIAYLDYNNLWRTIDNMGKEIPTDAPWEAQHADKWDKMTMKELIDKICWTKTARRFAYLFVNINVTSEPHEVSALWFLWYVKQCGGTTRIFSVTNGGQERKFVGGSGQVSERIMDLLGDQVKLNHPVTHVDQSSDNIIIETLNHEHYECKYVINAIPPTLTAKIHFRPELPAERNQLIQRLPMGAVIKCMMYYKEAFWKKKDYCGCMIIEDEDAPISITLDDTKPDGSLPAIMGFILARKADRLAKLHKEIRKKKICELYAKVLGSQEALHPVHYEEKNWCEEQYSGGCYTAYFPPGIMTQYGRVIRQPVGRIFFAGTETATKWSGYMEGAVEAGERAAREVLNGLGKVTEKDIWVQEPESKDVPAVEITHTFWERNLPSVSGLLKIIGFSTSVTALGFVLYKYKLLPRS

[6] = biological target: T2, Amine oxidase [flavin-containing] B (Homo sapiens, UniProt P27338)
T2 sequence (P27338 whole entry): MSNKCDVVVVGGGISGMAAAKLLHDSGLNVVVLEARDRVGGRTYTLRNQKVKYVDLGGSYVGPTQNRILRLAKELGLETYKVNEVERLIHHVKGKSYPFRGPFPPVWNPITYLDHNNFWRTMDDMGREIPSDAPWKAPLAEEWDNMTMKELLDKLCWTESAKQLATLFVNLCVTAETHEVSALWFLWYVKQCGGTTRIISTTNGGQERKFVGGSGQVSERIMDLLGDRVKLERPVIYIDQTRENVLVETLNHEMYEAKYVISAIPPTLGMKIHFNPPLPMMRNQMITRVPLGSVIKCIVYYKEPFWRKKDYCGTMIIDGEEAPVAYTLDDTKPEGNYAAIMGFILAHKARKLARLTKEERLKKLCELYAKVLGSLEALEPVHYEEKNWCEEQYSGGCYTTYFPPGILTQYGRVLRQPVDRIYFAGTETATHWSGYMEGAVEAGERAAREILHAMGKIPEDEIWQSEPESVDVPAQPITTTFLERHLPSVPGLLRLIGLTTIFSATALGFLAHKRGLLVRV
Description: Inhibition of human recombinant MAO-B using kynuramine as substrate measured after 30 mins by fluorescence assay

Homo sapiens = species: Homo sapiens; assay: Selectivity index, ratio of IC50 for human recombinant MAO-A to IC50 for human recombinant MAO-B
[7] = Permeability of the compound at 100 ug/ml after 18 hrs by PAMPA assay; type: ADME; conditions: read-out: permeability
[8] = biological target: T2, Amine oxidase [flavin-containing] B; assay: Inhibition of human recombinant MAO-B using kynuramine as substrate at 20 uM measured after 30 mins by fluorescence assay relative to control; conditions: 0.5 h
[9] = Metal chelating activity assessed as zinc-compound complex formation at 37.5 uM in presence of ZnCl2 measured after 30 mins by UV-vis spectrometry; type: physicochemical; conditions: 0.5 h
[10] = Metal chelating activity assessed as iron-compound complex formation at 37.5 uM in presence of FeSO4 measured after 30 mins by UV-vis spectrometry; type: physicochemical; conditions: 0.5 h
[11] = Metal chelating activity assessed as aluminium-compound complex formation at 37.5 uM in presence of AlCl3 measured after 30 mins by UV-vis spectrometry; type: physicochemical; conditions: 0.5 h
[12] = Metal chelating activity assessed as copper-compound complex formation at 37.5 uM in presence of CuCl2 measured after 30 mins by UV-vis spectrometry; type: physicochemical; conditions: 0.5 h

| Compound | IC50 (Acetylcholinesterase) [µM] | inhibition [1] [%] | Activity [2] [equiv] | inhibition [3] [%] | inhibition (INH) [4] [%] | inhibition [5] [%] | IC50 [6] [µM] | Ratio IC50 (Homo sapiens) | Papp at 18 h, 100 ug/ml [7] [×10⁻⁶ cm/s] | inhibition at 20 µM [8] [%] | Activity [9] | Activity [10] | Activity [11] | Activity [12] |
| --- | --- | --- | --- | --- | --- | --- | --- | --- | --- | --- | --- | --- | --- | --- |
| COc1cc2c(cc1OC)C(=O)/C(=C/c1cccc(O)c1)CO2 | 59.3 | 6.18 | 1.73 | 20.1 | 30.3 | 21.9 | 0.19 | > 105 | – | – | – | – | – | – |
| COc1cc(/C=C/C(=O)CC(=O)/C=C/c2ccc(O)c(OC)c2)ccc1O [CURCUMIN] | – | – | – | – | 67.2 | – | – | – | – | – | – | – | – | – |
| CCN(Cc1ccc(/C=C2\COc3cc(OC)c(OC)cc3C2=O)cc1O)Cc1ccccc1OC | 15.7 | 22.7 | 1.8 | 44 | 65.8 | 14 | 1.5 | > 13.3 | 6.05 | – | – | – | – | – |
| CCN(CC)Cc1ccc(/C=C2\COc3cc(OC)c(OC)cc3C2=O)cc1O | 0.0068 | 7.72 | 1.97 | 21.2 | 40.6 | 9.5 | 2.43 | > 8.2 | – | – | – | – | – | – |
| COc1cc2c(cc1OC)C(=O)/C(=C/c1cccc(O)c1CN1CCN(C)CC1)CO2 | 84.1 | < 5 | 1.83 | 26.8 | 36.3 | 6.8 | – | – | – | 29.8 | – | – | – | – |
| COc1cc2c(cc1OC)C(=O)/C(=C/c1ccc(CN(C)Cc3ccccc3)c(O)c1)CO2 | 1.99 | < 5 | 1.57 | 7.7 | 42.6 | 3.4 | 1.15 | > 17.4 | – | – | – | – | – | – |
| COc1cc2c(cc1OC)C(=O)/C(=C/c1cccc(O)c1CN1CCOCC1)CO2 | 85.9 | 7.85 | 1.52 | 7.8 | 32.4 | 2.1 | – | – | – | 18.6 | – | – | – | – |
| COc1ccccc1CN(C)Cc1ccc(/C=C2\COc3cc(OC)c(OC)cc3C2=O)cc1O | 16.4 | 11.2 | 1.78 | 37.8 | 67.8 | 12.3 | 1.03 | > 19.4 | – | – | – | – | – | – |
| COc1cc2c(cc1OC)C(=O)/C(=C/c1ccc(O)c(CN3CCCCC3)c1)CO2 | 0.928 | < 5 | 2.32 | 41.4 | 49 | 17 | 14 | > 1.4 | – | – | – | – | – | – |
| CCN(Cc1ccccc1)Cc1ccc(/C=C2\COc3cc(OC)c(OC)cc3C2=O)cc1O | 0.364 | < 5 | 1.13 | 32.7 | 49.9 | 15 | 1.72 | > 11.6 | – | – | – | – | – | – |
| COc1cc2c(cc1OC)C(=O)/C(=C/c1ccc(CN3CCOCC3)c(O)c1)CO2 | 1.29 | < 5 | 1.35 | 28.3 | 38.7 | 23 | 1.01 | > 19.8 | – | – | – | – | – | – |
| COc1ccccc1CN(C)Cc1c(O)cccc1/C=C1\COc2cc(OC)c(OC)cc2C1=O | 33.3 | 16 | 1.69 | 35.6 | 54.9 | 9.8 | – | – | – | 43.9 | – | – | – | – |
| COc1cc2c(cc1OC)C(=O)/C(=C/c1ccc(CN3CCN(C)CC3)c(O)c1)CO2 | 6.26 | < 5 | 2.11 | 41.9 | 40.5 | 40.5 | 0.915 | > 21.9 | – | – | – | – | – | – |
| COc1cc2c(cc1OC)C(=O)/C(=C/c1ccc(CN(C)C)c(O)c1)CO2 | 0.536 | < 5 | 1.71 | 35.2 | 42.2 | 8.2 | 0.882 | > 22.7 | – | – | – | – | – | – |
| CCN(Cc1ccccc1)Cc1c(O)cccc1/C=C1\COc2cc(OC)c(OC)cc2C1=O | 172 | < 5 | 1.34 | 8 | 28 | 9.8 | – | – | – | 38.1 | – | – | – | – |
| CCN(CC)Cc1c(O)cccc1/C=C1\COc2cc(OC)c(OC)cc2C1=O | 37.4 | 6.31 | 2.05 | 20.1 | 29.1 | 8.5 | – | – | – | 36.7 | – | – | – | – |
| CCN(Cc1ccc(/C=C2\COc3cc(OC)c(OC)cc3C2=O)cc1O)Cc1ccccc1N(C)C | 18.1 | 44.6 | 0.97 | 59.6 | 79.9 | 28.3 | 1.34 | > 14.9 | 10.5 | – | Active | Active | Active | Active |
| COc1cc2c(cc1OC)C(=O)/C(=C/c1ccc(CN3CCCC3)c(O)c1)CO2 | 0.362 | 24.1 | 1.65 | 37.3 | 36.5 | 16.4 | 0.722 | > 27.7 | 11.1 | – | – | – | – | – |
